In PubChem BioAssay AID624425 (The Scripps Research Institute Molecular Screening Center, 2012):

Target: Serine/threonine-protein phosphatase 5 (Homo sapiens) (UniProt P53041)
Experiment: PP5 inhibitor potency, OMFP substrate, dose response, biochemical, fluorescence, round 5, powder samples (AID 624425)
Settings: purified PP5c, OMFP dephosphorylation

Chain of Serine/threonine-protein phosphatase 5 (Homo sapiens) (P53041 whole entry, looked up): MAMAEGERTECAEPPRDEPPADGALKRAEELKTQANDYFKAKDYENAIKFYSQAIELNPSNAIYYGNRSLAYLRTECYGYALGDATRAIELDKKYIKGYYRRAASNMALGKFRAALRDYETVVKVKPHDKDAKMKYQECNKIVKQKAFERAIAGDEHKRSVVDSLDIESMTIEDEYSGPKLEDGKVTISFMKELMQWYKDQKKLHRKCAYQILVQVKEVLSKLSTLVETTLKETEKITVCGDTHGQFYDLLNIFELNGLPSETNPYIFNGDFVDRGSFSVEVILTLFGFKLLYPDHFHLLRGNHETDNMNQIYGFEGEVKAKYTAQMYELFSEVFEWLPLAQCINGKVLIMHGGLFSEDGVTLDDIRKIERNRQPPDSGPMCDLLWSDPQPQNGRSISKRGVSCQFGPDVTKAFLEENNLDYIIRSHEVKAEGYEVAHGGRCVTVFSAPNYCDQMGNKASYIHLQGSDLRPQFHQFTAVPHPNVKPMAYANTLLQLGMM

| IC50 [µM] | SMILES |
| --- | --- |
| 23.1 | COc1ccc(-c2n[nH]nc2C(=O)O)cc1 |
| 24.1 | O=C(O)c1n[nH]nc1-c1ccc(F)cc1 |
| 10.9 | COc1cccc(-c2n[nH]nc2C(=O)O)c1 |

Continued, compound first:

| SMILES | IC50 [µM] |
| --- | --- |
| COc1ccccc1-c1n[nH]nc1C(=O)O | 6 |
| O=C(O)c1n[nH]nc1-c1ccccc1F | 7.75 |
| O=C(O)c1n[nH]nc1-c1ccccc1O | 7.74 |
| O=C(O)c1n[nH]nc1-c1cccc(F)c1 | 17.8 |
